What was measured:
Type in all cases: cell-based, human
DU145 cell line [1] = assay: Cell viability / cell growth, MTT assay
Procedure: DU145 (human HRPC cell line, derived from a patient with brain metastasis) and PrEC (human normal prostate epithelial cell line) cell lines were obtained from Korea Cell Line Bank (KCLB, Seoul, South Korea). DU145 and PrEC cell lines were grown in triplicate culture plates containing RPMI-1640 (HyClone, Logan, Utah, USA) and Dulbecco's Modified Eagle's Medium (HyClone, Logan, Utah, USA) respectively, and kept in a humidified atmosphere containing 5% CO2 at 37° C. for 72 h. The media were supplemented with 10% heat-inactivated fetal bovine serum (HyClone, Logan, Utah, USA), 1% antibio-antimicotic solution containing 10,000 units/ml of penicillin and 10 mg/ml of streptomycin (HyClone, Logan, Utah, USA), HEPES, sodium bicarbonate, p-aminobenzoic acid and insulin (complete culture media). D-Allose was purchased from Sigma (St. Louis, Mo., USA) and dissolved at a concentration of 1 M in sterile phosphate-buffered saline (PBS), and was further sterilized by filtration. To examine the dose- and time-dependent effects, the cell lines (70-80% confluent) were treated with 0-40 mM of D-allose for up to 72 h, whereas without D-allose treated cell lines (0 mM) were considered as control. DU145 cell line was also treated with 0-40 mM of D-glucose. All the other chemicals used in the work were procured from Sigma (St. Louis, Mo., USA), unless otherwise specified.
The logarithmic growth phase of DU145 and PrEC cell lines were taken for growth assay using 3-[4,5-dimethylthiazol-2-yl]-2,5-diphenyl tetrazolium bromide (MTT). […] After incubation for the specified time at 37° C. in a humidified 5% CO2 incubator, cell viability was determined. […] To achieve solubilization of formazan crystal formed in viable cells, DMSO was added to each well, and the absorbance was recorded on a microplate reader at 595 nm wavelength. The effect of sugars on growth inhibition was assessed as percent cell viability where control cells were taken as 100% viable.

Bcl-2 mRNA = assay: RT-PCR of Bcl-2 mRNA in DU145; conditions: DU145, 72 h, 0, 20 and 40 mM
Procedure: To identify the relative levels of expression of Bcl-2, Bax and Caspase 3 mRNAs after 0, 20 and 40 mM of D-allose treatments for 72 h, RT-PCR was performed. DU145 cell line (1×10^6 cells in triplicate culture plates) was harvested as mentioned above and total RNA was extracted using TRIzol reagent (Invitrogen, Carlsbad, Calif., USA) following a standard laboratory protocol. The RNA purity and concentrations were determined. Then 2 μg of total RNA was reversely transcribed to single-stranded cDNA using Oligo(dT)12-18 primer (Invitrogen, Carlsbad, Calif., USA) with M-MLV reverse transcriptase (Promega, Madison, Wis., USA). For PCR reaction, 4 μl of cDNA was reacted with 20 pmol each of the forward and reverse primers (Bioneer Corporation, Seoul, South Korea), and GoTaq® Green Master Mix […] containing PCR buffer, 25 mM magnesium chloride, 10 mM dNTP mix and Taq enzyme (Promega, Madison, Wis., USA), and amplified. […] The molecular sizes of the amplified products were determined by comparison with the molecular weight marker (100 by DNAladder; Promega, Madison, Wis., USA) run parallel with the PCR products. The densities of mRNA bands were analyzed by Molecular Analyst™, version 1.4.1 (Bio-Rad, Hercules, Calif., USA).

DU145 cell line [2] = assay: Cell cycle analysis, PI staining, flow cytometry; conditions: for cells in G0-G1 phase: 48 h, untreated control 31.9%
Procedure: DU145 cell line (1×10^6 cells in triplicate culture plates) was treated with D-allose (0, 20 and 40 mM) for 48 and 72 h. The cells were treated with trypsin and harvested with PBS, centrifuged and resuspended the pellet in cold PBS-methanol mixture (1:9) for 1 h at 4° C. The cells were centrifuged, pellet washed and resuspended with PBS again, and incubated with RNAse (20 mg/ml in PBS) for 30 min at 37° C. The cells were chilled over ice and stained with PI (1 mg/ml in PBS) for 1 h and analyzed by flow cytometry using CellQuest software, version 3.0, performed on a FACSCalibur, fluorescence (FL2-A) detector equipped with 488 nm argon laser light source and 623 nm band pass filter (Becton Dickinson, San Jose, Calif., USA). Total 10,000 cells were acquired for analysis by CellQuest software and the quantification of FACS data was performed using ModFit LT software, version 2.0, (Becton Dickinson, San Jose, Calif., USA). The cell population was gated according to the characteristics side scatter and forward scatter intensities of FACS. The number of all gated living cells was taken as 100%, from which the percentage of cells in G0-G1, S and G2-M phase was calculated and presented in the right side of the histogram.

O=C[C@H](O)[C@H](O)[C@H](O)[C@H](O)CO [D-allose]
cell growth (MTT assay) (DU145 cell line [1]; DU145, 0-40 mM, compared to control): significant dose-dependent inhibition of cell growth
time dependence of cell growth inhibition (MTT assay) (DU145 cell line [1]; DU145, 24, 48 and 72 h): time-dependent inhibition of DU145 cell growth, which was more pronounced at 72 h post-treatment
Bcl-2 mRNA expression (Bcl-2 mRNA): significantly reduced
cells in G0-G1 phase (DU145 cell line [2]; DU145, 20 mM): 48.7%
cells in G0-G1 phase (DU145 cell line [2]; DU145, 40 mM): 57.5%
cell number in G2-M phase and S phase (DU145 cell line [2]; DU145, 48 h): concomitant decrease

Source: patent US20110071094A1, “(D)-ALLOSE INDUCING PROGRAMMED CELL DEATH IN HORMONE REFRACTORY PROSTATE CANCER LINES” (INDUSTRY-ACADEMIC COOPERATION FOUDATION, GYEONGSANG …, priority 2008, published 2011)
